Reference: ChEMBL document CHEMBL1201862, “PubChem BioAssay data set” (2004)
Blank lines part the entries; values can stand above or below the molecule they belong to. The source made the active and inactive calls.

How the values were obtained:
[1] = target: Voltage-gated inwardly rectifying potassium channel KCNH2 (Homo sapiens, UniProt Q12809); settings: Potency;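 further: confirmatory quantitative high-throughput screen measuring inhibition of hERG channel activity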
[2] = target: Acyl-homoserine lactone acylase PvdQ (Pseudomonas aeruginosa (strain LESB58), UniProt Q9I194); test: PvdQ acylase enzyme activity blockers – biochemical, fluorescence, plate reader and imaging, cherry-picks, dose response (AID 493231)
Acyl-homoserine lactone acylase PvdQ, sequence (Q9I194 24-193 limits assumed): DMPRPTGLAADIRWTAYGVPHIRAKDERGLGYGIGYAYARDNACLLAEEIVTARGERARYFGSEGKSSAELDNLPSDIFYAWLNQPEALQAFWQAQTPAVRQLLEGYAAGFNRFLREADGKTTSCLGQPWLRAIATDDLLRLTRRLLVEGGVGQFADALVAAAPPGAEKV
Acyl-homoserine lactone acylase PvdQ, sequence (Q9I194 217-762 limits assumed): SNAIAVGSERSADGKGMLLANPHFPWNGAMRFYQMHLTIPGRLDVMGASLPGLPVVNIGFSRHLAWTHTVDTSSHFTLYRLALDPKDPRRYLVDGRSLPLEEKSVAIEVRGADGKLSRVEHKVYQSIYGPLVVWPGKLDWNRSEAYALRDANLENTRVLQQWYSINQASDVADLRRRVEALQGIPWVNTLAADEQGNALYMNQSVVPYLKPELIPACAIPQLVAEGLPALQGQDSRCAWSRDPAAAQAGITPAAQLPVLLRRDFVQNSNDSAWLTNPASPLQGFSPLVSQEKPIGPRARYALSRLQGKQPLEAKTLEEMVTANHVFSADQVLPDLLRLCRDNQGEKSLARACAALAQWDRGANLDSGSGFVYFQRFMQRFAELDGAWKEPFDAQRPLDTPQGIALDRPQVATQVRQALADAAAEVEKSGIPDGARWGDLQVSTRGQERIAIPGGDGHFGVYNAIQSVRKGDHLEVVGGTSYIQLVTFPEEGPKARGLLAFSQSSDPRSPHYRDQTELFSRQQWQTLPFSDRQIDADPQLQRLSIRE

HeLa = test: toxicity to human HeLa cells – cell-based, 48 h, plate reader, cherry-picks, cytotoxicity control, dose response (AID 504942); assay type: functional
Escherichia coli = test: microbe, parasite or virus in culture
A-375 [3] = test: proliferation inhibition in MITF-low A375 cells – cell-based, cherry-pick samples, set 2, counter-screen for MITF modulator project, dose response (AID 540335); assay type: functional; settings: Homo sapiens
A-375 [4] = test: MITF: Counter assay: A375 proliferation Measured in Cell-Based System Using Plate Reader - 2084-03_Inhibitor_Dose_DryPowder_Activity. [Related pubchem assays (depositor defined):AID488944]; assay type: functional; settings: Homo sapiens
[5] = target: T1, Microphthalmia-associated transcription factor (Homo sapiens, UniProt O75030); test: reducers of TRPM1 reporter luminescence, concentration series – cell-based, SK-MEL-5, cherry-picked, set 3, MITF inhibitor project, dose response (AID 493073); assay type: functional;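 further: SK-MEL-5 melanoma cells with luciferase driven by the MITF target TRPM1 promoter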
T1 sequence (O75030 whole entry): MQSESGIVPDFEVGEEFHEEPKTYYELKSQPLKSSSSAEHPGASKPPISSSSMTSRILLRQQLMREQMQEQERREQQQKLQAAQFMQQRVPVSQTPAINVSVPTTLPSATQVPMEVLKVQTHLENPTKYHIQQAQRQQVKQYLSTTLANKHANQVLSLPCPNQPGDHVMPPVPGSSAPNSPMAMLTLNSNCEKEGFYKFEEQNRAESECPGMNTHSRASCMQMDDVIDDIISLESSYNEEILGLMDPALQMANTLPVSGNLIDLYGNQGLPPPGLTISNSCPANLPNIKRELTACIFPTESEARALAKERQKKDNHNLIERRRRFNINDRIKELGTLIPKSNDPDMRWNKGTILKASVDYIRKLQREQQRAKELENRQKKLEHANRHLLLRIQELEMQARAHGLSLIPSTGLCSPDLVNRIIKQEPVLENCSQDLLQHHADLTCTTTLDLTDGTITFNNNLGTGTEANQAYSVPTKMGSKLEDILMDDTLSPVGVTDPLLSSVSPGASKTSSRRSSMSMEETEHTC

Hexokinase-1 [6] = target: T2, Hexokinase-1 (Homo sapiens, UniProt P19367); test: hexokinase 1 activity inhibitors, potency – biochemical, set 2, resazurin fluorescence coupled readout, selectivity assay for HKDC1 inhibitor project, SAR follow-up (AID 588356); assay type: functional
T2 sequence (P19367 whole entry): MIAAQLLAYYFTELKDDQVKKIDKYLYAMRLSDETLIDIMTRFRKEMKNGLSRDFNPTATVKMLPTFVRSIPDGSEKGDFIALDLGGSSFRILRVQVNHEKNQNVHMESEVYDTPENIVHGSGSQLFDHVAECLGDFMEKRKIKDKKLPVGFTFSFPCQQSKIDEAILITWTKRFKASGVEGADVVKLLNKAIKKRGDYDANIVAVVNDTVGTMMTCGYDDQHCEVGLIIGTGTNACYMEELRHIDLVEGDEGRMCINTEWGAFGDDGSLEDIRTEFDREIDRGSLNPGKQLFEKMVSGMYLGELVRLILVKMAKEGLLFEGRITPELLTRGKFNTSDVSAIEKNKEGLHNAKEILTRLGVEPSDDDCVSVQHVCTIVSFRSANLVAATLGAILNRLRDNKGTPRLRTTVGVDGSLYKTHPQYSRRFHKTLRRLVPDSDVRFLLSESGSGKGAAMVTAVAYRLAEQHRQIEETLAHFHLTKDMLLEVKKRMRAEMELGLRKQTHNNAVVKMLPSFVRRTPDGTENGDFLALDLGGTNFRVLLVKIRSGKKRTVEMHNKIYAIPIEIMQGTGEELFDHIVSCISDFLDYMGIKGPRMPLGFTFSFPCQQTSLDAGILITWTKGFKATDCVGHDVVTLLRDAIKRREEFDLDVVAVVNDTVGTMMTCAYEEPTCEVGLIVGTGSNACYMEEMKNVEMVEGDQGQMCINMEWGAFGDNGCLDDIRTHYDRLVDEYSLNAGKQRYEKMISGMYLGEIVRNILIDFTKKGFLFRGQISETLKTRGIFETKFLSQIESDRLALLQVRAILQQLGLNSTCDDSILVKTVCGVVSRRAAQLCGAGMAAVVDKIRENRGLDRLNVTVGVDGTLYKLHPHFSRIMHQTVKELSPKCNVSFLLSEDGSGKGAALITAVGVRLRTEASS

Hexokinase HKDC1 [7] = target: T3, Hexokinase HKDC1 (Homo sapiens, UniProt Q2TB90); test: analog inhibition of human HKDC1 activity – biochemical, set 2, SAR follow-up (AID 588355); assay type: functional
T3 sequence (Q2TB90 whole entry): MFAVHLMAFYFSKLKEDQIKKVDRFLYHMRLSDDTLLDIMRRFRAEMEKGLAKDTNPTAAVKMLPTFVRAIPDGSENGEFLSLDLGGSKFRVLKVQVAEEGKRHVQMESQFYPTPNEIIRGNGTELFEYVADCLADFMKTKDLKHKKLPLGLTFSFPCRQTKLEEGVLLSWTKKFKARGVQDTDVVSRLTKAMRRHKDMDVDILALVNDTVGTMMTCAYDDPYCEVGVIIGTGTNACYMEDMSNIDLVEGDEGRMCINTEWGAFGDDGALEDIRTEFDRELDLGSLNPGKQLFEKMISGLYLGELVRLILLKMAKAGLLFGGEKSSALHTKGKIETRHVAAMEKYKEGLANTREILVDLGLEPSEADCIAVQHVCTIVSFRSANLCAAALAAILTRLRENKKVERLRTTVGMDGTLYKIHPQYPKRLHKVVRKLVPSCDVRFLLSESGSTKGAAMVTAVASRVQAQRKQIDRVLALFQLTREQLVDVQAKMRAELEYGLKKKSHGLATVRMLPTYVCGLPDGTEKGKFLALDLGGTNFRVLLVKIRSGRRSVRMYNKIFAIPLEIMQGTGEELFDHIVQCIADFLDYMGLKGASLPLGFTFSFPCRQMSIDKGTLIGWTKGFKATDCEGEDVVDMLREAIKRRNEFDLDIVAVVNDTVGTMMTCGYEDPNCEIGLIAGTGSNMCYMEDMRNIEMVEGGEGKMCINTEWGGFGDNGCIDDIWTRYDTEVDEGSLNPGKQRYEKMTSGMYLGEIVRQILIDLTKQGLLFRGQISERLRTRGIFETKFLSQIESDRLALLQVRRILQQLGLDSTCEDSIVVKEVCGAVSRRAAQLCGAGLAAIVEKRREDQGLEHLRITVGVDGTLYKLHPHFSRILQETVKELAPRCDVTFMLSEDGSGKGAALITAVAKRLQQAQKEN

Hexokinase-1 [8] = target: T2, Hexokinase-1; test: SAR analysis of small molecule inhibitors of hexokinase domain containing I (HKDC1) in the hexokinase 1 selectivity assay. [Related pubchem assays (depositor defined):AID493160, AID493190]; assay type: functional
Hexokinase HKDC1 [9] = target: T3, Hexokinase HKDC1; test: SAR analysis of small molecule inhibitors of hexokinase domain containing I (HKDC1). [Related pubchem assays (depositor defined):AID493160, AID493190]; assay type: functional

Voltage-gated inwardly rectifying potassium channel KCNH2, sequence (Q12809 whole entry): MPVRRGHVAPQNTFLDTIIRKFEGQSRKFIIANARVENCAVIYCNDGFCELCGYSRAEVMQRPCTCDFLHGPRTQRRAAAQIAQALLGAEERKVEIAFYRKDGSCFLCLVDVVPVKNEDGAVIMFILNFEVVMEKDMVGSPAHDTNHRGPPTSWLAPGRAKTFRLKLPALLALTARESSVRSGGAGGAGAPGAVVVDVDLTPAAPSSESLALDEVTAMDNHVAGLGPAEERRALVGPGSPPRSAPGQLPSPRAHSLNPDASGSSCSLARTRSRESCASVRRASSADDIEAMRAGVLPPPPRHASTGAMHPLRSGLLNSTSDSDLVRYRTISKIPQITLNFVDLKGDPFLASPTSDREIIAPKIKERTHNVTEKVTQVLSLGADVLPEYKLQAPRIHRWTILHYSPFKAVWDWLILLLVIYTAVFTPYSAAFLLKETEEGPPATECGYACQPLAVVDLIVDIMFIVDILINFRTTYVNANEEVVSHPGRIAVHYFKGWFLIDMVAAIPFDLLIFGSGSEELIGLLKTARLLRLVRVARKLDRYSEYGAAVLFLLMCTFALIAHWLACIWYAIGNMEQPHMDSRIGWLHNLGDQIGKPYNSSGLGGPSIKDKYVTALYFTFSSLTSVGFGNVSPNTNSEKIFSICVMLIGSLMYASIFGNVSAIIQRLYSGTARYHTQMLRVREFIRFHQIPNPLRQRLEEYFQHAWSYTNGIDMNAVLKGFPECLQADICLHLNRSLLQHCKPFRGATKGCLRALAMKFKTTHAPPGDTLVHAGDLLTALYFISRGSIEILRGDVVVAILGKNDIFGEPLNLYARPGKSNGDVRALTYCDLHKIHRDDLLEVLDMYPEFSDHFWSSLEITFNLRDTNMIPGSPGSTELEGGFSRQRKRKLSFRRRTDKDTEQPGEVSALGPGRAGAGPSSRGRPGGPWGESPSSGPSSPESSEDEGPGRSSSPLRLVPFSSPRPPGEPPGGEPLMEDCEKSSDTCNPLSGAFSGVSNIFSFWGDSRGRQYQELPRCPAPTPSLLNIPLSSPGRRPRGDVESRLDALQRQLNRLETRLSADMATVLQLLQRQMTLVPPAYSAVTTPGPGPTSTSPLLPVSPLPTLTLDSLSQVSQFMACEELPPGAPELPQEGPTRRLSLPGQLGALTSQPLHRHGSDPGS

SMILES: CC(C)COC(=O)COc1cc(Cl)c(Cl)cc1Cl
- AC50 [1]: 39.8 µM (inconclusive)

SMILES: CN(Cc1ccccc1)c1ncnc2ccc(Br)cc12
- AC50 [2]: 4.49 µM (active)
- AC50 (HeLa): 115 µM (active)

SMILES: CN1CCN(C(=S)c2cn(Cc3ccc(Br)cc3)c3ccccc23)CC1
- AC50 (Escherichia coli): 48.2 µM (active)

SMILES: CCOC(=O)Cn1cc([N+](=O)[O-])nc1[N+](=O)[O-]
- AC50 (A-375 [3]): > 11 µM (active)
- AC50 (A-375 [4]): > 11 µM (active)
- AC50 [5]: 29.5 µM (active)

- IC50 (Hexokinase-1 [6]): > 80 µM (inactive)
- IC50 (Hexokinase HKDC1 [7]): > 80 µM (inactive)
SMILES: COc1cc2c(cc1OC)-c1cc(NCCO)nc(=O)n1CC2

- IC50 (Hexokinase-1 [8]): > 80 µM (inactive)
- IC50 (Hexokinase HKDC1 [9]): > 80 µM (inactive)
SMILES: O=c1c2ccccc2nc(/C=C/c2cccnc2)n1Cc1ccc(Cl)cc1
